Test results published in patent publication US8476276B2, “Pharmaceutical compositions based on kinin B2 receptor antagonists and corticosteroids, and their use” (Istituto Luso Farmaco d'Italia S.p.A., priority 2008, dated 2013).

Assays:
[1] = tested on: cell infiltration in the airways caused by LPS; test: LPS-induced airway inflammation, leucocytes in bronchoalveolar washing; format: in vivo, guinea pig; conditions: for reduction of the number of inflammatory cells in the airways after LPS: aerosol of a 1 mg/ml solution for 15 min
[2] = tested on: carrageenan-induced joint oedema; test: Carrageenan-induced knee arthritis, joint oedema (knee joint diameter); format: in vivo, rat; conditions: for reduction of carrageenan-induced knee swelling: hydrocortisone experiment, 100 μg i.a. 30 min before carrageenan
Protocol: (§1) The activity of MEN16132, icatibant and cortisones was measured in an experimental model of arthritis induced by intra-articular injection of carrageenan which causes a strong inflammatory effect. […] The weight imbalance on the two weight-bearing paws, evaluated in a non-invasive way with the incapacitance test, measures the pain resulting from the joint inflammation. The diameter of the knee joint was also measured to measure the oedema.

[3] = tested on: carrageenan-induced joint pain; test: Carrageenan-induced knee arthritis, joint pain (incapacitance test); format: in vivo, rat
Protocol: as §1

[4] = tested on: human airway muscle cells; test: LPS-induced PGE2 release in cultures of human airway muscle cells; format: cell-based; conditions: LPS 1 μg/ml for 24 hours
Protocol: Similar findings were obtained with an in vitro model, in cultures of human airway muscle cells stimulated for 24 hours with 1 μg/ml LPS, where an approximately 16-fold increase in the production of PGE2 was observed compared with the control.

[5] = tested on: symptomatic OA of the knee; conditions: cited from earlier work
[6] = 100 μg/25 μl i.a. 30 min before carrageenan, maximum effect 6 hours
[7] = 100 μg i.a. 30 min before carrageenan, 6 hours after the irritant

SMILES | reduction of cell infiltration in the airways after LPS ([1]; aerosol of a 0.03 mg/ml solution for 15 min) [%] | reduction of carrageenan-induced oedema [2, 6] [%] | reduction of carrageenan-induced oedema ([2]; dexamethasone 10 μg i.a.) | reduction of joint pain ([3]; 10 μg i.a.) [%] | reduction of joint pain [3, 7] [%] | reduction of LPS-induced release of PGE2 ([4]; 1 μM) [%] | reduction of the number of inflammatory cells in the airways after LPS [1] [%] | reduction of carrageenan-induced knee swelling [2] [%] | reduction of LPS-induced release of PGE2 ([4]; 100 nM) [%] | duration of analgesic response after the treatment ([5]; intra-articular infiltration, 3×500 μg injections one week apart) | intensity of pain in the knee ([5]; phase II, single intra-articular administration 90 μg/1 ml, versus placebo)
C[C@@H]1C[C@H]2[C@@H]3CCC4=CC(=O)C=C[C@]4(C)[C@@]3(F)[C@@H](O)C[C@]2(C)[C@@]1(O)C(=O)CO [dexamethasone, Dexamethasone] | 8 | 57±3 | inactive | 14±4 | 44±3 | 45 | – | – | – | – | –
Cc1cc(C)c2cccc(OCc3c(Cl)ccc(S(=O)(=O)NC4(C(=O)N5CCN(C(=O)[C@@H](N)CCC[N+](C)(C)C)CC5)CCOCC4)c3Cl)c2n1 [MEN16132, (4-(S)-amino-5-(4-{4-[2,4-dichloro-3-(2,4-dimethyl-quinolin-8-yloxymethyl)-benzenesulphonylamino]-tetrahydro-pyran-4-carbonyl}-piperazin-1-yl)-5-oxo-pentyl]-trimethyl-ammonium] | – | 45±3 | – | – | 38±4 | – | 6 | 42±3 | 39 | – | –
NC(N)=NCCC[C@@H](N)C(=O)N[C@@H](CCCN=C(N)N)C(=O)N1CCC[C@H]1C(=O)N1C[C@H](O)C[C@H]1C(=O)NCC(=O)N[C@@H](Cc1cccs1)C(=O)N[C@@H](CO)C(=O)N1Cc2ccccc2C[C@@H]1C(=O)N1[C@H](C(=O)N[C@@H](CCCN=C(N)N)C(=O)O)C[C@@H]2CCCC[C@@H]21 [icatibant, H-D-Arg-Arg-Pro-Hyp-Gly-Thi-Ser-D-Tic-Oic-Arg-OH] | – | 48±5 | – | – | – | – | 5 | – | 30 | up to 3 months | reduced the intensity of pain in the knee to a greater extent than the placebo
C[C@]12CCC(=O)C=C1CC[C@@H]1[C@@H]2[C@@H](O)C[C@@]2(C)[C@H]1CC[C@]2(O)C(=O)CO [hydrocortisone, Hydrocortisone] | – | – | – | – | – | – | – | −4±3 | – | – | –
